CN1CC(O)c2cc(N=NC(N)=O)c(O)cc21 (centres undefined)
solubility (mole fraction) (in DMF, 278.15 K): 0.00095 | solubility (mole fraction) (in DMF, 283.15 K): 0.00115 | solubility (mole fraction) (in DMF, 288.15 K): 0.00129 | solubility (mole fraction) (in DMF, 293.15 K): 0.0015 | solubility (mole fraction) (in DMF, 298.15 K): 0.00177 | solubility (mole fraction) (in DMF, 303.15 K): 0.00202 | solubility (mole fraction) (in DMF, 308.15 K): 0.00231 | solubility (mole fraction) (in DMF, 313.15 K): 0.00277 | solubility (mole fraction) (in DMF, 318.15 K): 0.00335 | solubility (mole fraction) (in DMSO, 278.15 K): 0.00619 | solubility (mole fraction) (in DMSO, 283.15 K): 0.0073 | solubility (mole fraction) (in DMSO, 288.15 K): 0.00863 | solubility (mole fraction) (in DMSO, 293.15 K): 0.01 | solubility (mole fraction) (in DMSO, 298.15 K): 0.0113 | solubility (mole fraction) (in DMSO, 303.15 K): 0.0129 | solubility (mole fraction) (in DMSO, 308.15 K): 0.0146 | solubility (mole fraction) (in DMSO, 313.15 K): 0.0159 | solubility (mole fraction) (in DMSO, 318.15 K): 0.0174 | solubility (mole fraction) (in ethanol, 278.15 K): 1.8e-05 | solubility (mole fraction) (in ethanol, 283.15 K): 2.15e-05 | solubility (mole fraction) (in ethanol, 288.15 K): 2.42e-05 | solubility (mole fraction) (in ethanol, 293.15 K): 3.02e-05 | solubility (mole fraction) (in ethanol, 298.15 K): 3.67e-05 | solubility (mole fraction) (in ethanol, 303.15 K): 4.29e-05 | solubility (mole fraction) (in ethanol, 308.15 K): 5.24e-05 | solubility (mole fraction) (in ethanol, 313.15 K): 6.97e-05 | solubility (mole fraction) (in ethanol, 318.15 K): 8.54e-05 | solubility (mole fraction) (in methanol, 278.15 K): 3.56e-05 | solubility (mole fraction) (in methanol, 283.15 K): 4.38e-05 | solubility (mole fraction) (in methanol, 288.15 K): 5.31e-05 | solubility (mole fraction) (in methanol, 293.15 K): 6.89e-05 | solubility (mole fraction) (in methanol, 298.15 K): 8.35e-05 | solubility (mole fraction) (in methanol, 303.15 K): 9.97e-05 | solubility (mole fraction) (in methanol, 308.15 K): 0.00012 | solubility (mole fraction) (in methanol, 313.15 K): 0.000147 | solubility (mole fraction) (in methanol, 318.15 K): 0.000173 | solubility (mole fraction) (in n-propanol, 278.15 K): 1.75e-05 | solubility (mole fraction) (in n-propanol, 283.15 K): 2.05e-05 | solubility (mole fraction) (in n-propanol, 288.15 K): 2.41e-05 | solubility (mole fraction) (in n-propanol, 293.15 K): 2.77e-05 | solubility (mole fraction) (in n-propanol, 298.15 K): 3.18e-05 | solubility (mole fraction) (in n-propanol, 303.15 K): 3.66e-05 | solubility (mole fraction) (in n-propanol, 308.15 K): 4.5e-05 | solubility (mole fraction) (in n-propanol, 313.15 K): 5.92e-05 | solubility (mole fraction) (in n-propanol, 318.15 K): 7.31e-05 | solubility (mole fraction) (in water, 278.15 K): 2.81e-05 | solubility (mole fraction) (in water, 283.15 K): 3.26e-05 | solubility (mole fraction) (in water, 288.15 K): 3.78e-05 | solubility (mole fraction) (in water, 293.15 K): 4.4e-05 | solubility (mole fraction) (in water, 298.15 K): 5.15e-05 | solubility (mole fraction) (in water, 303.15 K): 6.03e-05 | solubility (mole fraction) (in water, 308.15 K): 6.87e-05 | solubility (mole fraction) (in water, 313.15 K): 7.98e-05 | solubility (mole fraction) (in water, 318.15 K): 9.69e-05

Source: BigSolDB 2.1
